In PubChem BioAssay (NCI):
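Protocol summary: plate cells (96-well), add compound at 5 concentrations, incubate 48 h, interpolate endpoints linearly. TGI is the concentration that stops growth completely.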 Where a SMILES comes first, the peptide text is derived from it. The star is where a group is joined. Boc = CC(C)(C)OC(=O)*

Legend:
Assay in all cases: NCI-60 cell line screen, 48 h
SW-620 colon = tested on: SW-620 colon
SK-OV-3 ovarian = tested on: SK-OV-3 ovarian
HL-60(TB) leukemia = tested on: HL-60(TB) leukemia
HOP-62 NSCLC = tested on: HOP-62 NSCLC
MDA-MB-435 = tested on: MDA-MB-435
COLO 205 colon = tested on: COLO 205 colon
MDA-N = tested on: MDA-N
T-47D breast = tested on: T-47D breast
SK-MEL-28 melanoma = tested on: SK-MEL-28 melanoma
MDA-MB-231 breast = tested on: MDA-MB-231 breast
UACC-257 melanoma = tested on: UACC-257 melanoma
NCI-H460 lung = tested on: NCI-H460 lung
TK-10 renal = tested on: TK-10 renal
OVCAR-3 ovarian = tested on: OVCAR-3 ovarian
HCT-116 colon = tested on: HCT-116 colon
UACC-62 melanoma = tested on: UACC-62 melanoma
EKVX NSCLC = tested on: EKVX NSCLC
HOP-92 NSCLC = tested on: HOP-92 NSCLC
SF-295 CNS = tested on: SF-295 CNS
SNB-19 CNS = tested on: SNB-19 CNS
IGROV1 ovarian = tested on: IGROV1 ovarian
DU-145 prostate = tested on: DU-145 prostate
HCC-2998 colon = tested on: HCC-2998 colon
PC-3 prostate = tested on: PC-3 prostate
ACHN renal = tested on: ACHN renal
RPMI-8226 leukemia = tested on: RPMI-8226 leukemia
HCT-15 colon = tested on: HCT-15 colon
OVCAR-8 ovarian = tested on: OVCAR-8 ovarian
SK-MEL-5 melanoma = tested on: SK-MEL-5 melanoma
CAKI-1 renal = tested on: CAKI-1 renal
LOX IMVI melanoma = tested on: LOX IMVI melanoma
A549 NSCLC = tested on: A549 NSCLC
HT29 colon = tested on: HT29 colon
M14 melanoma = tested on: M14 melanoma
OVCAR-4 ovarian = tested on: OVCAR-4 ovarian
MOLT-4 leukemia = tested on: MOLT-4 leukemia
CCRF-CEM leukemia = tested on: CCRF-CEM leukemia
NCI-H522 lung = tested on: NCI-H522 lung
SF-268 CNS = tested on: SF-268 CNS
MCF7 breast = tested on: MCF7 breast
SR leukemia = tested on: SR leukemia
MALME-3M melanoma = tested on: MALME-3M melanoma
K-562 leukemia = tested on: K-562 leukemia
U251 CNS = tested on: U251 CNS
SN12C renal = tested on: SN12C renal
A498 renal = tested on: A498 renal
KM12 colon = tested on: KM12 colon
NCI/ADR-RES ovarian = tested on: NCI/ADR-RES ovarian
786-0 renal = tested on: 786-0 renal
SNB-75 CNS = tested on: SNB-75 CNS
SF-539 CNS = tested on: SF-539 CNS
NCI-H23 lung = tested on: NCI-H23 lung
OVCAR-5 ovarian = tested on: OVCAR-5 ovarian
SK-MEL-2 melanoma = tested on: SK-MEL-2 melanoma
RXF 393 renal = tested on: RXF 393 renal
NCI-H226 lung = tested on: NCI-H226 lung
HS 578T breast = tested on: HS 578T breast
UO-31 renal = tested on: UO-31 renal

## CC(C)(C)OC(=O)NC(Cc1ccccc1)C(=O)N1CCCC1C(N)=O (stereo not drawn) (Boc-Phe-Pro-NH2; configuration not given here)
SW-620 colon
  TGI: > 100 µM
SK-OV-3 ovarian
  TGI: > 100 µM
HL-60(TB) leukemia
  TGI: > 100 µM
HOP-62 NSCLC
  TGI: > 100 µM
MDA-MB-435
  TGI: > 100 µM
COLO 205 colon
  TGI: > 100 µM
MDA-N
  TGI: > 100 µM
T-47D breast
  TGI: > 100 µM
SK-MEL-28 melanoma
  TGI: > 100 µM
MDA-MB-231 breast
  TGI: > 100 µM
UACC-257 melanoma
  TGI: > 100 µM
NCI-H460 lung
  TGI: > 100 µM
TK-10 renal
  TGI: > 100 µM
OVCAR-3 ovarian
  TGI: > 100 µM
HCT-116 colon
  TGI: > 100 µM
UACC-62 melanoma
  TGI: > 100 µM
EKVX NSCLC
  TGI: > 100 µM
HOP-92 NSCLC
  TGI: 74 µM
SF-295 CNS
  TGI: > 100 µM
SNB-19 CNS
  TGI: > 100 µM
IGROV1 ovarian
  TGI: > 100 µM
DU-145 prostate
  TGI: > 100 µM
HCC-2998 colon
  TGI: > 100 µM
PC-3 prostate
  TGI: > 100 µM
ACHN renal
  TGI: > 100 µM
RPMI-8226 leukemia
  TGI: > 100 µM
HCT-15 colon
  TGI: > 100 µM
OVCAR-8 ovarian
  TGI: > 100 µM
SK-MEL-5 melanoma
  TGI: > 100 µM
CAKI-1 renal
  TGI: > 100 µM
LOX IMVI melanoma
  TGI: > 100 µM
A549 NSCLC
  TGI: > 100 µM
HT29 colon
  TGI: > 100 µM
M14 melanoma
  TGI: > 100 µM
OVCAR-4 ovarian
  TGI: > 100 µM
MOLT-4 leukemia
  TGI: > 100 µM
CCRF-CEM leukemia
  TGI: > 100 µM
NCI-H522 lung
  TGI: > 100 µM
SF-268 CNS
  TGI: > 100 µM
MCF7 breast
  TGI: > 100 µM
SR leukemia
  TGI: > 100 µM
MALME-3M melanoma
  TGI: > 100 µM
K-562 leukemia
  TGI: > 100 µM

## Cc1nc2ccc(Cl)cc2c(Cl)c1CCCl
SW-620 colon
  TGI: > 100 µM
SK-OV-3 ovarian
  TGI: > 100 µM
HL-60(TB) leukemia
  TGI: > 100 µM
HOP-62 NSCLC
  TGI: > 100 µM
MDA-MB-435
  TGI: 31.2 µM
COLO 205 colon
  TGI: > 100 µM
U251 CNS
  TGI: > 100 µM
MDA-N
  TGI: 40.9 µM
SN12C renal
  TGI: > 100 µM
A498 renal
  TGI: > 100 µM
KM12 colon
  TGI: > 100 µM
SK-MEL-28 melanoma
  TGI: > 100 µM
NCI/ADR-RES ovarian
  TGI: > 100 µM
MDA-MB-231 breast
  TGI: > 100 µM
786-0 renal
  TGI: > 100 µM
UACC-257 melanoma
  TGI: > 100 µM
NCI-H460 lung
  TGI: > 100 µM
TK-10 renal
  TGI: > 100 µM
SNB-75 CNS
  TGI: > 100 µM
OVCAR-3 ovarian
  TGI: > 100 µM
HCT-116 colon
  TGI: > 100 µM
UACC-62 melanoma
  TGI: > 100 µM
SF-539 CNS
  TGI: > 100 µM
EKVX NSCLC
  TGI: > 100 µM
HOP-92 NSCLC
  TGI: 94.2 µM
NCI-H23 lung
  TGI: > 100 µM
SF-295 CNS
  TGI: > 100 µM
OVCAR-5 ovarian
  TGI: > 100 µM
SNB-19 CNS
  TGI: > 100 µM
SK-MEL-2 melanoma
  TGI: > 100 µM
RXF 393 renal
  TGI: > 100 µM
IGROV1 ovarian
  TGI: > 100 µM
NCI-H226 lung
  TGI: > 100 µM
DU-145 prostate
  TGI: > 100 µM
HCC-2998 colon
  TGI: > 100 µM
HS 578T breast
  TGI: > 100 µM
PC-3 prostate
  TGI: > 100 µM
ACHN renal
  TGI: > 100 µM
RPMI-8226 leukemia
  TGI: > 100 µM
HCT-15 colon
  TGI: > 100 µM
OVCAR-8 ovarian
  TGI: > 100 µM
SK-MEL-5 melanoma
  TGI: > 100 µM
CAKI-1 renal
  TGI: > 100 µM
LOX IMVI melanoma
  TGI: > 100 µM
A549 NSCLC
  TGI: > 100 µM
HT29 colon
  TGI: > 100 µM
M14 melanoma
  TGI: > 100 µM
MOLT-4 leukemia
  TGI: > 100 µM
CCRF-CEM leukemia
  TGI: > 100 µM
NCI-H522 lung
  TGI: > 100 µM
SF-268 CNS
  TGI: > 100 µM
MCF7 breast
  TGI: 99.2 µM
UO-31 renal
  TGI: > 100 µM
SR leukemia
  TGI: > 100 µM
MALME-3M melanoma
  TGI: > 100 µM
K-562 leukemia
  TGI: > 100 µM

## Nc1nc(N)c2nc(CNc3ccc(C(=O)NC(CCC(=O)O)C(=O)O)cc3F)cnc2n1 (stereo not given)
SW-620 colon
  TGI: > 100 µM
SK-OV-3 ovarian
  TGI: > 100 µM
HOP-62 NSCLC
  TGI: > 100 µM
MDA-MB-435
  TGI: > 100 µM
COLO 205 colon
  TGI: > 100 µM
U251 CNS
  TGI: > 100 µM
MDA-N
  TGI: > 100 µM
T-47D breast
  TGI: > 100 µM
SN12C renal
  TGI: > 100 µM
KM12 colon
  TGI: > 100 µM
SK-MEL-28 melanoma
  TGI: > 100 µM
NCI/ADR-RES ovarian
  TGI: > 100 µM
MDA-MB-231 breast
  TGI: > 100 µM
786-0 renal
  TGI: > 100 µM
UACC-257 melanoma
  TGI: > 100 µM
NCI-H460 lung
  TGI: > 100 µM
TK-10 renal
  TGI: > 100 µM
SNB-75 CNS
  TGI: > 100 µM
OVCAR-3 ovarian
  TGI: > 100 µM
HCT-116 colon
  TGI: > 100 µM
UACC-62 melanoma
  TGI: > 100 µM
EKVX NSCLC
  TGI: > 100 µM
NCI-H23 lung
  TGI: > 100 µM
SF-295 CNS
  TGI: > 100 µM
OVCAR-5 ovarian
  TGI: > 100 µM
SNB-19 CNS
  TGI: > 100 µM
SK-MEL-2 melanoma
  TGI: > 100 µM
RXF 393 renal
  TGI: > 100 µM
IGROV1 ovarian
  TGI: > 100 µM
NCI-H226 lung
  TGI: > 100 µM
DU-145 prostate
  TGI: > 100 µM
HCC-2998 colon
  TGI: > 100 µM
HS 578T breast
  TGI: > 100 µM
PC-3 prostate
  TGI: > 100 µM
ACHN renal
  TGI: > 100 µM
RPMI-8226 leukemia
  TGI: 67.2 µM
HCT-15 colon
  TGI: > 100 µM
OVCAR-8 ovarian
  TGI: > 100 µM
SK-MEL-5 melanoma
  TGI: > 100 µM
CAKI-1 renal
  TGI: > 100 µM
LOX IMVI melanoma
  TGI: > 100 µM
A549 NSCLC
  TGI: > 100 µM
HT29 colon
  TGI: > 100 µM
M14 melanoma
  TGI: > 100 µM
OVCAR-4 ovarian
  TGI: > 100 µM
CCRF-CEM leukemia
  TGI: > 100 µM
NCI-H522 lung
  TGI: > 100 µM
SF-268 CNS
  TGI: > 100 µM
MCF7 breast
  TGI: > 100 µM
MALME-3M melanoma
  TGI: > 100 µM
K-562 leukemia
  TGI: > 76.7 µM
